Source: patent publication US7763598B2, “1α-hydroxy-2-(3′-hydroxypropylidene)-19-nor-vitamin D compounds with a 1,1-dimethylpropyl side chain” (Wisconsin Alumni Research Foundation, priority 2006, dated 2010)

Columns and labels:
[1] = test system: 24-hydroxylase (24Ohase) gene promoter; assay: In vitro transcription assay (luciferase reporter in ROS 17/2.8 bone cells); format: cell-based; conditions: FIG. 3; for EC50: ROS 17/2.8 cells, 24Ohase promoter-luciferase, 16 h, read-out: EC50, transcriptional activity in bone cells
Experimental: Transcription activity was measured in ROS 17/2.8 (bone) cells that were stably transfected with a 24-hydroxylase (24Ohase) gene promoter upstream of a luciferase reporter gene (Arbour et al., 1998). Cells were given a range of doses. Sixteen hours after dosing the cells were harvested and luciferase activities were measured using a luminometer.
RLU=Relative Luciferase Units.

[2] = Bone calcium mobilization (serum calcium) in vitamin D-deficient rats; format: in vivo, rat
Experimental: (§1) Male, weanling Sprague-Dawley rats were placed on Diet 11 (0.47% Ca) diet +AEK for one week followed by Diet 11 (0.02% Ca) +AEK for 3 weeks. The rats were then switched to a diet containing 0.47% Ca for one week followed by two weeks on a diet containing 0.02% Ca. Dose administration began during the last week on 0.02% calcium diet. Four consecutive ip doses were given approximately 24 hours apart. Twenty-four hours after the last dose, blood was collected from the severed neck and the concentration of serum calcium determined as a measure of bone calcium mobilization. The first 10 cm of the intestine was also collected for intestinal calcium transport analysis using the everted gut sac method.

[3] = test system: Human promyelocytic leukemia (HL60) cells; assay: HL-60 differentiation (nitro blue tetrazolium reduction); format: cell-based; conditions: FIG. 2; for EC50: HL60 cells, 4 days, NBT reduction
Experimental: The study drugs were dissolved in ethanol and the concentrations determined using UV spectrophotometry. Serial dilutions were prepared so that a range of drug concentrations could be tested without changing the final concentration of ethanol (≦0.2%) present in the cell cultures.
Human promyelocytic leukemia (HL60) cells were grown in RPMI-1640 medium containing 10% fetal bovine serum. The cells were incubated at 37° C. in the presence of 5% CO2.
HL60 cells were plated at 1.2×10^5 cells/ml. Eighteen hours after plating, cells in duplicate were treated with drug. Four days later, the cells were harvested and a nitro blue tetrazolium reduction assay was performed (Collins et al., 1979; J. Exp. Med. 149:969-974). The percentage of differentiated cells was determined by counting a total of 200 cells and recording the number that contained intracellular black-blue formazan deposits. Verification of differentiation to monocytic cells was determined by measuring phagocytic activity (data not shown).

[4] = Intestinal calcium transport (everted gut sac) in vitamin D-deficient rats; format: in vivo, rat; conditions: for Intestinal calcium transport: everted gut sac, vitamin D-deficient rats, FIG. 5
Experimental: as §1

[5] = biological target: T1, full-length recombinant rat vitamin D receptor (Rattus norvegicus, UniProt P13053); assay: Vitamin D receptor binding (competition with [3H]-1,25(OH)2D3); conditions: full-length recombinant rat VDR; FIG. 1
T1 construct: Full-length recombinant rat receptor was expressed in E. coli; histidine tag (C); made in house; host or cells: E. coli BL21 (DE3) Codon Plus RIL
T1 sequence (P13053 1-423): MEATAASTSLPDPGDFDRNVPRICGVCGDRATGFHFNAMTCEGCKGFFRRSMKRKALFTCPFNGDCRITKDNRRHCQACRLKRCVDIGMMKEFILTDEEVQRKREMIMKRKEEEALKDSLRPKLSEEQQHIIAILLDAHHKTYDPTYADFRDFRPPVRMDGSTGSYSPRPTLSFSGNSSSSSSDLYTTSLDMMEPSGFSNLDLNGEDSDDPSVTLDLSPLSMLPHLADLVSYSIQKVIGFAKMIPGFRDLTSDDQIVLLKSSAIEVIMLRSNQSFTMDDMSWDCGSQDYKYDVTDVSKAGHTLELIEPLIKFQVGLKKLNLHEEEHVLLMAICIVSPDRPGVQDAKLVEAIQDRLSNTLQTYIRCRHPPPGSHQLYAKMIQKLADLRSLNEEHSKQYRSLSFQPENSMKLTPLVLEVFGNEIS
Experimental: Full-length recombinant rat receptor was expressed in E. coli BL21 (DE3) Codon Plus RIL cells and purified to homogeneity using two different column chromatography systems. The first system was a nickel affinity resin that utilizes the C-terminal histidine tag on this protein. The protein that was eluted from this resin was further purified using ion exchange chromatography (S-Sepharose Fast Flow). Aliquots of the purified protein were quick frozen in liquid nitrogen and stored at −80° C. until use. For use in binding assays, the protein was diluted in TEDK50 (50 mM Tris, 1.5 mM EDTA, pH7.4, 5 mM DTT, 150 mM KCl) with 0.1% Chaps detergent. The receptor protein and ligand concentration were optimized such that no more than 20% of the added radiolabeled ligand was bound to the receptor.
Radiolabeled and unlabeled ligands were added to 100 mcl of the diluted protein at a final ethanol concentration of ≦10%, mixed and incubated overnight on ice to reach binding equilibrium. The following day, 100 mcl of hydroxylapatite slurry (50%) was added to each tube and mixed at 10-minute intervals for 30 minutes. […] After the final wash, the pellets were transferred to scintillation vials containing 4 ml of Biosafe II scintillation cocktail, mixed and placed in a scintillation counter. Total binding was determined from the tubes containing only radiolabeled ligand.

| Binding to vitamin D receptor compared to 1,25-(OH)2D3 (in words) [5] | Ki [5] | EC50 ([3]; Homo sapiens, HL-60, 96 h) | Compound | EC50 [1] | Serum calcium levels (bone calcium mobilization) ([2]; at the dosage tested, vitamin D-deficient rats on low calcium diet (0.02%), FIG. 4) | EC50 [3] | Intestinal calcium transport ([4]; 260 pmol/day) | Transcriptional activity in bone cells compared to 1α,25-dihydroxyvitamin D3 (in words) [1] | Bone calcium mobilization (serum calcium) ([2]; 260 pmol/day ip for 4 consecutive days, vitamin D-deficient rats on low calcium diet (0.02%), FIG. 4) | Bone calcium mobilization (serum calcium) ([2]; 2340 pmol/day ip for 4 consecutive days, vitamin D-deficient rats on low calcium diet (0.02%), FIG. 4) | Bone calcium mobilization activity compared to 1,25(OH)2D3 (in words) ([2]; FIG. 4, overall) | HL-60 cell differentiation potency compared to 1,25(OH)2D3 (in words) [3] | Intestinal calcium transport ([4]; 2340 pmol/day) | Stimulating intestinal calcium transport compared to 1,25(OH)2D3 (in words) ([4]; FIG. 5, overall) |
| --- | --- | --- | --- | --- | --- | --- | --- | --- | --- | --- | --- | --- | --- | --- |
| – | – | – | C=C1/C(=C\C=C2/CCC[C@]3(C)[C@@H]([C@H](C)CCCC(C)(C)O)CC[C@@H]23)C[C@@H](O)C[C@@H]1O [1,25(OH)2D3, 1α,25-dihydroxyvitamin D3, reference compound] | 0.2 nM | increased serum calcium levels | 20 nM | promotes a significant increase | – | – | – | – | – | – | – |
| bound equally well | 0.08 nM | 50 nM | CCC(C)(C)C1CCC2C(=CC=C3CC(O)C(=CCCO)C(O)C3)CCCC21C (stereo not drawn) [20DC, 1α-hydroxy-2-[3′-hydroxypropylidene]-20-methyl-19,24,25,26,27-pentanorvitamin D3] | 2 nM | – | – | does not promote intestinal calcium transport | about the same transcriptional activity | did not result in mobilization of bone calcium | without any substantial effect | very little bone calcium mobilization activity | about as potent as 1,25(OH)2D3 | does not promote intestinal calcium transport | very little activity |
